Drawing on ChEMBL document CHEMBL1143970, “Structure-activity relationships and CoMFA of N-3 substituted phenoxypropyl piperidine benzimidazol-2-one analogues as NOP receptor agonists with analgesic properties” (Bioorg Med Chem, 2008), this text covers ED50, Activity and solubility for three molecules.

In brackets after ≈: the same amount, converted by molar mass.

Series [1] has as its system Rattus norvegicus. Nature of the series: Effect on mechanically-induced allodynia in iv dosed Wistar rat after 2 hrs by Brennan test. The series is classed as functional.
The subject of series [2] is Rattus norvegicus. The series is described as follows: Reversal of mechanically-induced allodynia in Wistar rat at 30 umol/kg, iv after 2 hrs by Brennan test. Type of series: functional.
Series [3] can be described thus: Solubility of the compound. The series is classed as physicochemical.

In the series with Rattus norvegicus [1], `COc1ccc(C)c(OC(CCN2CCC(n3c(=O)n(Cc4ncn[nH]4)c4ccccc43)CC2)C(C)C)c1` (centres undefined) returned a median effective dose (ED50) of 12.1 µmol/kg. For the same molecule, in the series with Rattus norvegicus [2], the Activity is 100%. The molecule `COc1ccc(C)c(OC(CCN2CCC(n3c(=O)n(Cc4c[nH]cn4)c4ccccc43)CC2)C(C)C)c1` (centres undefined) returned a solubility in series [3] of 200 µg/mL (≈ 386 µM).

The molecule `COc1ccc(C)c(OC(CCN2CCC(n3c(=O)n(Cc4ncn[nH]4)c4ccccc43)CC2)C(C)C)c1.Cl` (single isomer, unassigned; (+)) displayed a solubility in series [3] of 4 µg/mL. This solubility is about 50-fold lower than that of the molecule before.

In general, ED50 refers to the dose that gives a 50% effect, or the effect in half of the subjects. Low values mean an effect at a small dose, high ones a need for a large dose. By solubility is commonly meant the dissolved amount per volume that the medium holds. Lower therefore signals a poorly soluble substance.
